Several values for one entry are separate records, joined by “and”; a condition that tells them apart may be missing. Equal entries are not always repeated.
Columns and labels:
[1] = target: T1, human phenylalanine hydroxylase (hPAH) (Homo sapiens, UniProt P00439); assay: Small-angle X-ray scattering of hPAH; settings: 200 μM in buffer/2% DMSO
T1 construct: Recombinant full-length wild-type (WT) hPAH was expressed in E. coli Top10 cells in fusion with a hexa-histidyl peptide; made in house; host or cells: E. coli Top10
T1 sequence (P00439 1-452): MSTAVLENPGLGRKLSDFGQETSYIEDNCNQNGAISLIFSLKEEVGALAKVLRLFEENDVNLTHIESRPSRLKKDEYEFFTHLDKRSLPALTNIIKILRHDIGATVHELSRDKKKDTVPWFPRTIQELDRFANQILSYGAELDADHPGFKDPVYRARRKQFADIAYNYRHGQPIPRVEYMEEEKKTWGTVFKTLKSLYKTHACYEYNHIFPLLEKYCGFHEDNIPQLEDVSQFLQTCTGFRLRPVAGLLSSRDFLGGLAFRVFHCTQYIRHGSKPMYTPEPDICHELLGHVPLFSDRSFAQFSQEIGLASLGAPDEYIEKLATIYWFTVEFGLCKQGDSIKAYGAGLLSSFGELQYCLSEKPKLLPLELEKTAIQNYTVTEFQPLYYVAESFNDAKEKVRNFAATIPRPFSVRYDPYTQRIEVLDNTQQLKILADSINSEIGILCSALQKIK
Experimental: Small-angle X-ray scattering experiments were performed at the Diamond Light Source B21 [30] beamline at a wavelength of 0.95 Å. Tetrameric hPAH was thawed on ice, centrifuged at 12,000× g for 8 min at 4 °C, and quantitated using a NanoDrop (molar extinction coefficient: 10.09 mg/mL/cm) prior to data acquisition. Measurements were performed in static mode with the automated sample changer at 20 °C using a protein concentration of 86 μM (monomer) in 20 mM Na-HEPES, 200 mM NaCl, pH 7.0 in the absence or presence of 2% DMSO. L-Phe and compound 9 were tested at a final concentration of 200 μM in 2% DMSO. Data were recorded using a Pilatus 2M detector covering a momentum transfer 0.0031 < s < 0.380 Å-1 (s = 4π sin θ/λ, where 2θ is the scattering angle). The data were processed and analyzed using the ATSAS program suite. The sample frames were monitored for radiation damage, the selected frames were averaged, and the buffer contribution was subtracted using PRIMUS [32]. The radius of gyration (Rg) and the maximum particle dimension (Dmax) were estimated from the Guinier approximation using PRIMUS and from the pair-distribution function P(r) using the GNOM package, respectively. Fitting of the experimental curves and the theoretical curves computed from SASBDB models was performed using CRYSOL [31].

[2] = target: T1, human phenylalanine hydroxylase (hPAH); design: method as in PMID 12379147, PMID 15060071; settings: ref [24],[25]; read-out: KD of L-Phe, previously reported SPR values; cited from earlier work

| Structure (SMILES) | Dmax of hPAH [1] [Å] | MM of hPAH (MM = VP/1.6) [1] [kDa] | Rg^Guinier of hPAH [1] [Å] | Rg^P(r) of hPAH [1] [Å] | VP (excluded particle volume) of hPAH [1] | Kd [2] |
| --- | --- | --- | --- | --- | --- | --- |
| COC(=O)CC[C@H](NC(=O)c1c(O)c(=O)[nH]c2ccc(OC(F)(F)F)cc12)C(=O)OC [Compound 9] | 189 | 268 | 52.14 ± 0.07 | 52.00 ± 0.05 | 428,899 Å^3 | – |
| N[C@@H](Cc1ccccc1)C(=O)O [L-Phe, L-phenylalanine, reference compound] | 179 | 393 | 52.73 ± 0.07 | – | 629,301 Å^3 | 97 µM and 136 µM |
